# Source: patent publication US11591333B2, “Substituted pyrrolo[2,3-d]pyrimidines as janus kinase inhibitors” (CINKATE PHARM TECH (SHANGHAI) CO.,LTD., priority 2016, dated 2023)
# pEC50: −log10 of the molar value.
# What was measured:
# [1] = system: JAK2/JAK1; experiment: JAK enzyme activity inhibition, JAK2 versus JAK1 selectivity; type: biochemical; conditions: ratio of JAK2 IC50 to JAK1 IC50
# Experimental: (§1) The tested compounds were dissolved in DMSO to provide a 10 mM mother solution. The compound was diluted to 1 mM in DMSO before use, and was gradient diluted by 3 folds to altogether 11 concentrations. After the buffer was prepared, JAK1, JAK2, JAK3 and the substrate were mixed with pre-diluted compounds in different concentrations, and allowed to stand at room temperature for 30 minutes, while each concentration was duplicated for twice. ATP was added and reacted at room temperature for 90 minutes, and antibody was added for detection after the reaction was completed.
# [2] = system: mouse spleen cells; experiment: CD3/CD28 antibody-induced mouse spleen cell proliferation (CCK8); type: cell-based; conditions: for concentration at which inhibition of lymphocyte proliferation began: Anti-CD3/CD28 as the stimuli; for pEC50: mouse spleen cells, CD3/CD28 antibodies as stimulus, read-out: Inhibition activity (EC50), CD3/CD28
# [3] = system: mouse spleen cells; experiment: Mitogen ConA-induced mouse spleen cell proliferation (CCK8); type: cell-based; conditions: for concentration at which inhibition of lymphocyte proliferation began: ConA as the stimuli; for pEC50: mouse spleen cells, ConA as stimulus, read-out: Inhibition activity (EC50), ConA induction; for inhibition to the non-specific immunosuppression induced by mitogen: in words, compared with specific immunity
# Experimental: […] 5*10^5/well, with or without 50 uL of ConA at a concentration of 2.5 ug/uL as well as 50 uL inhibitors at a different concentration, while the negative control wells were supplemented with 50 uL of complete 1640 medium. After 48 hours of culture, the cell culture supernatant was collected for 100 uL/well for subsequent ELISA, and 10 uL/well of CCK8 reagent was added to detect the cell proliferation. The proliferation of immune cells was microscopic observed in each group.
# […] mouse spleen cells were adjusted to a cell concentration of 5*10^6/mL in complete 1640 medium, […], i.e., 5*10^5/well, […], as well as 50 uL of different concentrations of inhibitor (compound 1-6) while negative control well was supplemented with 50 uL of complete 1640 medium. […] The proliferation of immune cells was microscopic observed in each group, and the EC50 value was calculated.
# [4] = system: JAK3/JAK1; experiment: JAK enzyme activity inhibition, JAK3 versus JAK1 selectivity; type: biochemical; conditions: ratio of JAK3 IC50 to JAK1 IC50
# Experimental: as §1
Molecule,Selectivity fold JAK2/JAK1 IC50 ratio [1],concentration at which inhibition of lymphocyte proliferation began [2],pEC50 [2],concentration at which inhibition of lymphocyte proliferation began [3],pEC50 [3],Selectivity fold JAK3/JAK1 IC50 ratio [4],inhibition to the non-specific immunosuppression induced by mitogen [3]
"2-cyano-3-hydroxy-2-butene-{4-[methyl-(7H-pyrrolo[2,3-d]pyrimidin-4-yl)-amino]-phenyl]-amide [Compound 4]",7 fold,50 µM,4.51,100 µM,4.21,5 fold,–
"CN(c1ccc(N)cc1)c1ncnc2[nH]ccc12 [Compound 1, N-Methyl-N-(7H-pyrrolo[2,3-d]pyrimidin-4-yl)phenyl-1,4-diamine]",7 fold,10 µM,4.64,10 µM,4.27,2 fold,weak
"C/C(O)=C(\C#N)C(=O)Nc1ccc(C(F)(F)F)cc1 [Compound A771726, A771726, reference compound]",–,–,< 3.70,–,< 3.70,–,–
"5-methyl-isoxazole-{4-methyl-(7H-pyrrolo[2,3-d]pyrimidin-4-yl)-amino]-cyclohex yl}-amine [Compound 3]",>10 fold,10 µM,4.18,10 µM,4.04,>10 fold,weak
"C[C@@H]1CCN(C(=O)CC#N)C[C@@H]1N(C)c1ncnc2[nH]ccc12 [Tofatinib, reference compound]",2 fold,–,–,–,–,<1 fold,–
"2-cyano-3-hydroxy-2-butene-{4-[methyl-(7H-pyrrolo[2,3-d]pyrimidin-4-yl)-amino]-cyclohexyl]-amide [Compound 5]",>10 fold,–,< 4.00,–,< 3.70,>10 fold,–
Cc1oncc1C(=O)Nc1ccc(N(C)c2ncnc3[nH]ccc23)cc1 [Compound 2],>10 fold,50 µM,4.82,10 µM,4.39,>10 fold,–
